Experimental data from ChEMBL document CHEMBL5344468, “Novel Heterocyclic PAD4 Inhibitors for Treating Diseases” (ACS Med Chem Lett, 2024).

The molecules below were run against Protein-arginine deiminase type-4 (Homo sapiens, UniProt Q9UM07) (assay: Inhibition of human PAD4 using BAEE as substrate preincubated with enzyme for 30 mins followed by substrate addition for 90 mins and later incubated with phenyl glyoxal for 30 mins by RFMS assay).
Chain of Protein-arginine deiminase type-4 (Q9UM07 whole entry): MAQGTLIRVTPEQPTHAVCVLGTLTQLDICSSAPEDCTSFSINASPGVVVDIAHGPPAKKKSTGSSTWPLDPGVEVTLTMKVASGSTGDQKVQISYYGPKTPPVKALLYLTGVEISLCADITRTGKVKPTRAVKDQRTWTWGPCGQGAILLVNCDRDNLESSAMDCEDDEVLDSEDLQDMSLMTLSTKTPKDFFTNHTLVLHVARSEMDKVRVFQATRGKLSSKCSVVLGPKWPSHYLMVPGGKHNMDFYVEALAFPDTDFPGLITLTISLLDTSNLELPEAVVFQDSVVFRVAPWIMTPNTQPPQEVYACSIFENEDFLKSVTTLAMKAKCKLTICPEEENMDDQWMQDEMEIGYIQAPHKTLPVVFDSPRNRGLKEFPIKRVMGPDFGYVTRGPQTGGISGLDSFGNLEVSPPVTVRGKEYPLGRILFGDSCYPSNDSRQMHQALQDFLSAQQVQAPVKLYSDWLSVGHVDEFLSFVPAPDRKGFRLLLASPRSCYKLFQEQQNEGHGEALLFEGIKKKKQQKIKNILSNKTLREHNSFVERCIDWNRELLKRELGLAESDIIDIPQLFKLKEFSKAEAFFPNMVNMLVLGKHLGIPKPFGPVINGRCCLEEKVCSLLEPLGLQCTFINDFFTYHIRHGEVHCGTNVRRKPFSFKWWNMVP

IC50, ≤ 10 nM:
Cn1c(-c2cc3cccc(OCCc4cnn[nH]4)c3n2CC2CC2)nc2cc3c(nc21)CCN(C[C@H](N)CF)C3=O
Cn1c(-c2cc3cccc(OCCc4cccnc4)c3n2CC2CC2)nc2cc3c(nc21)CCN(C[C@H](N)CF)C3=O
Cn1c(-c2cc3cccc(OCCc4ccon4)c3n2CC2CC2)nc2cc3c(nc21)CCN(C[C@H](N)CF)C3=O
Cn1c(-c2cc3cccc(OCCc4cnco4)c3n2CC2CC2)nc2cc3c(nc21)CCN(C[C@H](N)CF)C3=O
Cn1c(-c2cc3cccc(OCCc4ccn[nH]4)c3n2CC2CC2)nc2cc3c(nc21)CCN(C[C@H](N)CF)C3=O
Cn1c(-c2cc3ccnc(OCCn4ccnc4)c3n2CC2CC2)nc2cc3c(nc21)CCN(C[C@H](N)CF)C3=O
